In ChEMBL document CHEMBL3885881, “DrugMatrix”:

Species: Rattus norvegicus
Assay: DrugMatrix - Regimen: Daily Repeat
Format: toxicity, organism-based, Sprague-Dawley
Set-up: regimen Daily Repeat, gender Male, age 6-8 weeks
Conditions: in vivo, po, 3 mg/kg, route oral GAVAGE, dose level Low, vehicle 100 % WATER; for ABSOLUTE BASOPHIL / ABSOLUTE EOSINOPHIL / ABSOLUTE LYMPHOCYTE / ABSOLUTE MONOCYTE / ABSOLUTE SEGMENTED NEUTROPHIL / BASOPHIL / EOSINOPHIL / ERYTHROCYTE COUNT / HEMATOCRIT / HEMOGLOBIN / LEUKOCYTE COUNT / LYMPHOCYTE / MEAN CORPUSCULAR HEMOGLOBIN / MEAN CORPUSCULAR HEMOGLOBIN CONCENTRATION / MONOCYTE / NEUTROPHIL / NUCLEATED RED BLOOD CELLS / PLATELET COUNT: tissue Blood; for ALANINE AMINOTRANSFERASE / ALBUMIN / ALKALINE PHOSPHATASE / ASPARTATE AMINOTRANSFERASE / BLOOD UREA NITROGEN / CARBON DIOXIDE / CHLORIDE / CHOLESTEROL / CREATINE PHOSPHOKINASE / CREATININE / GLUCOSE / LACTATE DEHYDROGENASE / LIPASE / PHOSPHORUS / SODIUM / TOTAL BILIRUBIN / TOTAL PROTEIN / URIC ACID: tissue Plasma

## COc1cc2nc(N3CCN(C(=O)C4CCCO4)CC3)nc(N)c2cc1OC (configuration not stated) [TERAZOSIN]
72 h, time 3 day
  ABSOLUTE BASOPHIL: 0 CELLS/uL
  ABSOLUTE EOSINOPHIL: 53.33 CELLS/uL
  ABSOLUTE LYMPHOCYTE: 7633 CELLS/uL
  ABSOLUTE MONOCYTE: 36.67 CELLS/uL
  ABSOLUTE SEGMENTED NEUTROPHIL: 977 CELLS/uL
  BASOPHIL: 0%
  EOSINOPHIL: 0.67%
  ERYTHROCYTE COUNT: 4.99 x10E6/uL
  HEMATOCRIT: 32.2%
  HEMOGLOBIN: 12.87 G/DL
  LEUKOCYTE COUNT: 8.7 x10E3/uL
  LYMPHOCYTE: 88%
  MEAN CORPUSCULAR HEMOGLOBIN: 25.87 pg
  MEAN CORPUSCULAR HEMOGLOBIN CONCENTRATION: 40 G/DL
  MONOCYTE: 0.33%
  NEUTROPHIL: 11%
  NUCLEATED RED BLOOD CELLS: 0 /100WBC
  PLATELET COUNT: 1053.33 x10E3/uL
  ALANINE AMINOTRANSFERASE: 63.67 u/L
  ALBUMIN: 4.27 G/DL
  ALKALINE PHOSPHATASE: 367.67 u/L
  ASPARTATE AMINOTRANSFERASE: 102.33 u/L
  BLOOD UREA NITROGEN: 16.67 mg/dL
  CARBON DIOXIDE: 32.67 mmol/L
  CHLORIDE: 103.33 MEQ/L
  CHOLESTEROL: 74 mg/dL
  CREATINE PHOSPHOKINASE: 321.67 u/L
  CREATININE: 0.24 mg/dL
  GLUCOSE: 155 mg/dL
  LACTATE DEHYDROGENASE: 197.67 u/L
  LIPASE: 8.33 u/L
  PHOSPHORUS: 12.7 mg/dL
  SODIUM: 145.9 MEQ/L
  TOTAL BILIRUBIN: 0.13 mg/dL
  TOTAL PROTEIN: 5.97 G/DL
  URIC ACID: 1.27 mg/dL
120 h, time 5 day
  ABSOLUTE BASOPHIL: 0 CELLS/uL
  ABSOLUTE EOSINOPHIL: 0 CELLS/uL
  ABSOLUTE LYMPHOCYTE: 9705.67 CELLS/uL
  ABSOLUTE MONOCYTE: 145.67 CELLS/uL
  ABSOLUTE SEGMENTED NEUTROPHIL: 882 CELLS/uL
  BASOPHIL: 0%
  EOSINOPHIL: 0%
  ERYTHROCYTE COUNT: 5.4 x10E6/uL
  HEMATOCRIT: 35.9%
  HEMOGLOBIN: 13.87 G/DL
  LEUKOCYTE COUNT: 10.73 x10E3/uL
  LYMPHOCYTE: 90.33%
  MEAN CORPUSCULAR HEMOGLOBIN: 25.7 pg
  MEAN CORPUSCULAR HEMOGLOBIN CONCENTRATION: 38.67 G/DL
  MONOCYTE: 1.33%
  NEUTROPHIL: 8.33%
  NUCLEATED RED BLOOD CELLS: 0 /100WBC
  PLATELET COUNT: 1076.33 x10E3/uL
  ALANINE AMINOTRANSFERASE: 56.67 u/L
  ALBUMIN: 4.27 G/DL
  ALKALINE PHOSPHATASE: 361.33 u/L
  ASPARTATE AMINOTRANSFERASE: 85.33 u/L
  BLOOD UREA NITROGEN: 20.67 mg/dL
  CARBON DIOXIDE: 30 mmol/L
  CHLORIDE: 102.67 MEQ/L
  CHOLESTEROL: 75.33 mg/dL
  CREATINE PHOSPHOKINASE: 197.33 u/L
  CREATININE: 0.24 mg/dL
  GLUCOSE: 172 mg/dL
  LACTATE DEHYDROGENASE: 141.67 u/L
  LIPASE: 11.33 u/L
  PHOSPHORUS: 13.7 mg/dL
  SODIUM: 146.17 MEQ/L
  TOTAL BILIRUBIN: 0.2 mg/dL
  TOTAL PROTEIN: 5.9 G/DL
  URIC ACID: 1.7 mg/dL
